# How the values were obtained:
# SW480 cells [1] = assay: Colony survival assay, SW480; type: cell-based, human
# Source text: Chemicals and Reagents. BG was generously provided by Dr. Robert Moschel (Frederick Cancer Research and Development Center, National Cancer Institute). Stock solution was made in dimethylsulfoxide. TMZ and BCNU were obtained from the Drug Synthesis and Chemistry Branch, Drug Therapeutic Program, National Cancer Center Institute. PD128763 was a gift from Park-Davis Pharmaceutical Division. 6-AN, 3-AB, MX and methylmethane sulfonate (MMS) were purchased from Sigma (ST. Louis, Mo.). Stock solutions of PD128763, 3-AB and 6-AN were prepared by dissolving in dimethylsulfoxide and added to cell culture at a final concentration of <1% DMSO, when cells were treated with these compounds. MX was dissolved in sterilized water (pH 7.0). All stock solutions were kept at −20° C. BCNU was prepared fresh in 0.5 ml of 100% ethanol, diluted in PBS, and used with in 10 min. Colony Survival Assay. SW480 cells were obtained from the ATCC. HCT116 cells were obtained from R. Boland, University of Michigan Medical Center. All cell lines were cultured in appropriate growth medium.
# Cells (2000/dish) were plated, adhered for 18 hrs and treated with TMZ or
# MMS plus or minus modifiers such as […], MX, 6-AN, 3-AB or PD128763, according to experimental protocol. After treatment, cells were washed and fresh medium was replaced. The cells were grown for a further 7 days prior to staining with methylene blue for determination of colonies containing more than 50 cells. Comparisons of drug induced cytotoxicity consisted of a calculation of the dose modification factor (DMF), defined as the ratio of the IC50 of either TMZ or MMS in the absence to that in the presence of indicted modifier(s), i.e., DMF═IC50 for TMZ alone/IC50 for TMZ plus modifier(s).
# SW480 xenograft = SW480 xenograft tumor response in nude mice; type: in vivo; details: SW480 xenograft; Table 1 doses: TMZ 120, MX 2, BG+TMZ 30/120, MX+TMZ 2/120 mg/kg; daily for 5 days
# AP-endonuclease (APE) = assay: AP site cleavage by AP-endonuclease (APE); type: biochemical
# Protocol: 2. AP sites cleavaged by AP-endonuclease (APE). […] The assay may be performed as follows (see also FIGS. 23A and B):
# a. AP site is prepared by replacing single nucleoside with deoxyuridine in duplex oligonucleotides (40 mer).
# b. Regular AP site is produced in the duplex oligonucleotides by human uracil DNA glycosylase (LIDGase, Trevigen, Gaithersburg, Md.) to remove the uracil residue.
# c. To generate MX-adducted AP site substrates: the UDG-treated duplex oligonucleotides are mixed with 10 mM MX in buffer containing 10 mM KPO4, pH 7.1 and incubated at 37° C. After 30 min, the substrates are recovered by ethanol precipitation, lyophilized, resuspended in water, and stored at −20° C.
# d. APE-cleavage reaction: DNA substrates containing either regular AP-sites or chemicalmodified AP sites are incubated with APE (Trevigen, Gaithersburg, Md.) for 30 min and reactants are precipitated with 100% cold ethanol, washed with 70% ethanol and resuspended in TE buffer. The reactants are resolved by denaturing 20% polyacrylamide gel electrophoresis and visualized by silver staining (Silver Staining Kit, Pharmacia Biotech).
# [2] = system: human bone marrow cells (CD34+ cells); assay: Colony forming assay, human bone marrow / CD34+ cells; type: cell-based; details: human CD34+ cells; colony forming assay
# Source text: (§1) We observed less myelosuppression and less weight loss using TMZ and MX than using TMZ and BG. […] To test this hypothesis, we conducted in vitro experiments comparing the sensitivity to BG+TMZ and MX+TMZ in colon cancer cell lines with that of mouse bone marrow and human bone marrow cells. […] MX increased TMZ killing by 4 fold in SW480 cells. […] Topoisomerase (Topo) I and Topo II recognize spontaneous AP sites and form stable cleavable complexes. We hypothesized that AP sites formed during repair of TMZ-induced N7 mG and N3 mA adducts would also be recognized by Topo I and Topo II. However since Base Excision Repair [BER] is normally quite efficient, we further hypothesized that the impact of Topo I and Topo II would be most important after MX inhibition of BER; increased unrepaired MX adducted AP sites should increase Topo mediated strand breaks and apoptosis. Therefore, potentiation of TMZ cytotoxicity by MX would be dependent on Topo I and II. […] Lack of Topo I and II results in less cleavable complex formation, fewer double strand DNA breaks, and less apoptosis. We predict a better therapeutic index for the combination of MX/TMZ than observed with BG/TMZ because of the relative overexpression of topoisomerases I and II in malignant cells compared to marrow progenitors.
# [3] = system: murine bone marrow progenitor cells; assay: Colony forming assay, murine bone marrow progenitor cells; type: cell-based, mouse; details: murine bone marrow progenitor cells; colony forming assay
# Source text: as §1
# [4] = Toxicity evaluation in mice bearing HCT116 xenograft; details: Table 2 doses
# Protocol: Tumors in Nude Mice. Tumor cells (5×10^6) were injected into flanks of female athymic HSD nude mice, at 6-8 weeks of age. The tumors were measured with calipers using the National Cancer Institute formula: V=L(mm)×I^2 (mm)/2 where L is the largest diameter and I is the smallest diameter of the tumor. […] Toxicity Evaluation. Toxicity after treatment was evaluated by body weight measurements and peripheral WBC counting. Body weight was measured three times weekly from the first treatment until 2 weeks after the end of treatment. The weight loss was expressed as a percentage of the initial weight (initial weight−lowest weight/initial weight×100%).
# SW480 cells [5] = assay: Flow cytometry cell cycle distribution and apoptosis, SW480
# Protocol: Median Effect Analysis (MEA). MEA was used to determine the dose-response interactions between TMZ and either MX or PD 128763. Drugs were combined at the ratio of the IC50 values for either TMZ and MX or TMZ and PD 128763 as determined by survival/concentration curves. The combination was compared to the cytotoxicity of each drug alone in every experiment. The combination index (CI) was determined from colony-forming assays at increasing levels of cell killing, using analysis of multiple drug interaction program (Biosoft, Cambridge, United Kingdom) developed based on method of Chou and Talalay (Chou and Talalay “Quantitative analysis of dose-effect relationship: the combined effects of multiple drugs on enzyme inhibitors” In: G. Weber (ed.) Advances in Enzyme Regulation, pp. 27-55, New York: Pergamon Press, 1983). […] DNA fluorescence of PI-stained cells was measured with an Elite ESP flow cytometer/cell sorter (Coulter, Miami, Fla.). Cell cycle distribution was analyzed with Modfit 5.2 program (Verity software, Topsham, Mass.) at least 10,000 cells per data point. […] The tumors were measured with calipers using the National Cancer Institute formula: V=L(mm)×I^2 (mm)/2 where L is the largest diameter and I is the smallest diameter of the tumor. […] The relative tumor volume (V/V0) was calculated by dividing the measured tumor volume (V) by the initial tumor volume (V0) at day 0. […]
# AP sites in SW480 cells = assay: AP sites measured with ARP reagent and S phase in SW480 cells, prolonged MX exposure; details: MX and TMZ over 72 h
# Source text: Cell lines used in this study include SW480 (MMR wt, p53 mut), HCT116 (hMLH1 mut, p53 wt) and HCT15 (hMSH6 mut, p53 mut). We measured AP sites using ARP reagent, noting that ARP and MX compete for binding to AP sites. […] It is likely that cytotoxicity elicited by both topol/II inhibitors and MX-AP sites is due to DNA cleavable complexes, and is thus dependent on the level of topo I/II expression.
structure (smiles),measurement,setting,value
"CON [MX, methoxyamine]",cytotoxicity of MX alone,"SW480 cells [1]; SW480, 6 mM MX",nontoxic
same,DMF / potentiation of MMS cytotoxicity,"SW480 cells [1]; SW480, MMS 0-3 mM plus 6 mM MX and/or BG vs MMS alone",2.0 fold
same,DMF (IC50 for TMZ alone/IC50 for TMZ plus modifier(s)),"SW480 cells [1]; SW480, modifier(s) plus TMZ vs TMZ alone",2.4 fold
same,effect of modifier on BCNU cytotoxicity,"SW480 cells [1]; SW480, without BG",No enhancement
same,potentiation of TMZ cytotoxicity,"SW480 cells [1]; SW480 tumor cells, Example 13",4 fold
same,Tumor growth delays,SW480 xenograft,2.0 ± 0.5 days
same,cleavage of modified AP sites by APE,AP-endonuclease (APE),resistant to cleavage
same,potentiation of TMZ cytotoxicity,[2],no potentiation
same,potentiation of TMZ cytotoxicity,[3],no potentiation
same,Toxicity (max. BW loss),[4],8.3%
same,effect of modifier alone on cell cycle distribution,SW480 cells [5],did not affect
same,AP sites MX bound,AP sites in SW480 cells,80%

# Reference: US8324282B2, “Alkylating agent combinations in the treatment of cancer” (Case Western Reserve University, priority 1999, dated 2012)
